In data set [1] the test system is HT29 colorectal adenocarcinoma cells. The experiment in a line: In vitro cell kill assay. Type of data set: cell-based. As for the experimental part:
MCC, MMC prodrugs, and liposomal MMC prodrugs were evaluated in an in vitro cell kill assay. MMC, MMC prodrug, and liposomal MMC prodrug samples were diluted in DPBS as a starting concentration, then serially diluted 1:3 in DPBS (i.e., 70 μL:140 μL). HT29 colorectal adenocarcinoma cells were plated at 100 μL/well in 10% FBS/McCoy's 5a+Pen/Strep media at 5×10^4 cells/mL, based on approximated 24-h doubling time. The plates were incubated at 37° C. overnight to allow the cells to adhere. Next, 10 μL/well treatment dose of MMC, MMC prodrug, or liposomal MMC prodrug was added to the wells, and the plates were incubated at 37° C. […] After a 2-h incubation, the media was removed from the plate and 100 μL/well drug-free media was added before returning to the incubator. After a 24-h incubation, the media was removed from the plate and 100 μL/well drug-free media was added before returning to the incubator. After a 72-h incubation, the media was removed from all of the plates and 100 μL/well drug-free media with 10% Alamar was added to each and returned to the incubator.
Cell viability was measured using WST-1 cell proliferation colorimetric assay or AlamarBlue. 50 mL of 10% WST/McCoy's 5a media was prepared from 5 mL of WST+45 mL of media; 50 mL of 10% Alamar Blue/McCoy's 5a media was prepared from 5 mL of Alamar Blue+45 mL of media. 10% WST/McCoy's 5a media or 10% Alamar Blue/McCoy's 5a was added, and the plates were returned to the incubator to develop, followed by subsequent reading of the fluorescence or absorbance.

Data set [2] in a line: Conversion of MMC prodrug to MMC in cysteine solution (HPLC). Type of data set: physicochemical. The note with it: cysteine solution pH 6.95, 37° C., after 2 h.
The nature of data set [3]: Plasma pharmacokinetics of liposomal MMC prodrugs in mice. It is filed as in vivo. An excerpt:
The plasma pharmacokinetics of liposomal MMC prodrugs and free MMC were studied in mice. The liposomal MMC prodrugs are described in Table 6 below.
Animals were randomized into five (5) groups, each with 18 mice.
Three animals were sacrificed at the appropriate time points post injection. Blood samples were taken for pharmacokinetic analysis at each time point (Table 8). Approximately 0.4 mls of blood was collected, via cardiac puncture under isoflurane anesthesia, into a lithium heparin tube and placed on ice. The samples were spun to obtain the plasma, which were stored in microfuge tubes at −80° C.

For data set [4] the following is noted: in vivo; cited from earlier work.
In data set [5] the test system is HT29 colorectal adenocarcinoma xenografts. As to the method: The anti-tumor activity of liposomal MMC prodrugs were evaluated in female Hsd:Athymic Nude-Foxn1^nu/nu mice (approximately 25 g) implanted subcutaneous with HT29 colorectal adenocarcinoma cells or (1×10^6). Once tumors reached a median size of 200 mm^3, animals were randomized into five (5) groups, normalized by tumor volume. Animals without tumors were not included in this study. […]
According to NCI euthanasia guidelines, mice were removed from the study if they loss 20% of their initial bodyweight or became moribund or if their tumor volume exceeded 2500 mm^3 or if the tumor ulcerated. Tumor volume was measured with the TumorImager system at least twice per week and calculated with the TumorManager software, and mice were weighed twice per week.
Tumor volume was expressed as mean and median and plotted as a function of time. Animals removed from the study due to excess tumor size beyond 2500 mm^3 had values carried forward as 2500 mm^3 in the median plot only. Groups with less than 50% animals remaining were not carried forward for further tumor analysis. The following parameters were determined from tumor size and survival analysis: tumor growth inhibition (TGI), tumor growth delay (TGD), and median survival. The ratio of treated versus control tumor volume (% T/C) was calculated as: […]
Statistical significance of observed differences between growth curves were evaluated by One-Way ANOVA followed by posthoc test if significant.
In another study, mice bearing HT29 colorectal adenocarcinoma xenografts were given a single intravenous dose of liposomal MMC Prodrugs (MP-3854 or MP-3861), free MMC, or saline and the results are summarized FIGS. 7 and 8 and Table 10 below.
In another study, mice bearing HT29 colorectal adenocarcinoma xenografts were given a single intravenous dose of liposomal MMC Prodrug (W-3854) or saline and the results are summarized FIG. 10 and Table 12 below.
In a further study, mice bearing HT29 colorectal adenocarcinoma xenografts were given a single intravenous dose of liposomal MMC Prodrug (W-3854) or saline and the results are summarized FIG. 11 and Table 13 below.

A further data set relates to A549 NSCLC xenografts. Nature of the data set: In vivo anti-tumor activity, A549 xenografts. Also on record: species or system mice. The note with it: single IV, 5 mg/kg MMC-eq.
Where [6] appears, read: Table 10, single IV, 3 mg/kg MMC-eq.
Where [7] appears, read: Table 10, single IV, 5 mg/kg MMC-eq.
The mark [8] stands for this setting: 2 h drug incubation, read-out: IC50.
The mark [9] stands for this setting: 24 h drug incubation, read-out: IC50.
Where [10] appears, read: 72 h drug incubation, read-out: IC50.

Read-outs that look alike come from different tables or passages of the source.

Usually IC50 stands for the concentration that gives 50% inhibition. As to `CO[C@@]12[C@H](COC(N)=O)C3=C(C(=O)C(C)=C(N)C3=O)N1C[C@H]1[C@@H]2N1C(=O)OCCSSCCN1CCN(C)CC1` [MP-3854, 2-((2-(4-methylpiperazin-1-yl)ethyl)disulfanyl)ethyl (1aS,8S,8aR,8bS)-6-amino-8-((carbamoyloxy)methyl)-8a-methoxy-5-methyl-4,7-dioxo-1a,4,7,8,8a,8b-hexahydroazirino[2′,3′:3,4]pyrrolo[1,2-a]indole-1(2H)-carboxylate], the IC50 in data set [1] (Homo sapiens, HT-29, 2 h drug incubation, read-out: IC50) was 41400 nM; in data set [1] (Homo sapiens, HT-29, 24 h drug incubation, read-out: IC50), 4170 nM; in data set [1] (Homo sapiens, HT-29, 72 h drug incubation, read-out: IC50), 3090 nM. Besides, the conversion of prodrug result in data set [2] is on record as “complete conversion”. In addition, in data set [2] (HPLC 360 nm), the MMC generated is 92 Area %.

On to `CO[C@@]12[C@H](COC(N)=O)C3=C(C(=O)C(C)=C(N)C3=O)N1C[C@@H]1N[C@@H]12` [MMC, Mitomycin C], for which the Half-Life result in data set [3] (Mitomycin C in plasma after high dose of MP-3854 (25 mg/kg MMC-eq)) and in data set [3] (Mitomycin C in plasma after low dose of MP-3854 (5 mg/kg MMC-eq)) was “LLD” throughout. The IC50 in data set [1] (Homo sapiens, HT-29, 2 h) came out at 1830 nM; in data set [1] (Homo sapiens, HT-29, 24 h), 175 nM; in data set [1] (Homo sapiens, HT-29, 48 h), 109 nM; in data set [1] (Homo sapiens, HT-29, 72 h), 199 nM. In addition, the half-life alpha in data set [4] is 8 min. Also, in data set [4], the half-life terminal was 48 min. The “% T/C” value came to 72% in data set [5] (Table 9, 2 mpk q7d x3); 13% in data set [5] (Table 9, 3 mpk q7d x3); 5% in data set [5] (Table 9, 5 mpk q7d x3); 77% in data set [5] (Table 9, 5 mpk single); 83% in data set [5] (setting [6]); 48% in data set [5] (setting [7]). Besides, in the data set with A549 NSCLC xenografts, the “% T/C” value worked out at 90%. Moreover, the “Median Survival” value worked out at 48 days in data set [5] (setting [6]), 54 days in data set [5] (setting [7]) and 76 days in the data set with A549 NSCLC xenografts. Further, the results for the “TGD (1000 mm3 Days)” value (in data set [5] (setting [6]); in data set [5] (setting [7]); in the data set on A549 NSCLC xenografts) were 5.2 days, 9.5 days and 32 days, respectively.

Consider `CO[C@@]12[C@H](COC(N)=O)C3=C(C(=O)C(C)=C(N)C3=O)N1C[C@H]1[C@@H]2N1C(=O)OCCSSCCN1CCCCC1` [MP-3827], for which the IC50 in data set [1] (setting [8]) was found to be 5930 nM; in data set [1] (setting [9]), 2640 nM; in data set [1] (48 h drug incubation, read-out: IC50), 1690 nM; in data set [1] (setting [10]), 1290 nM.

`CO[C@@]12[C@H](COC(N)=O)C3=C(C(=O)C(C)=C(N)C3=O)N1C[C@H]1[C@@H]2N1C(=O)OCc1ccc(SSCCN2CCCCC2)cc1` [MP-3832, 4-((2-(piperidin-1-yl)ethyl)disulfanyl)benzyl(1aS,8S,8aR,8bS)-6-amino-8-((carbamoyloxy)methyl)-8a-methoxy-5-methyl-4,7-dioxo-1a,4,7,8,8a,8b-hexahydroazirino[2′,3′:3,4]pyrrolo[1,2-α]indole-1(2H)-carboxylate]: the IC50 in data set [1] (setting [8]) turned out to be 4700 nM; in data set [1] (setting [9]) it was 1440 nM; in data set [1] (setting [10]), 1710 nM.
